This is an account of results in patent publication US11472844B2, “Peptidomimetics, method of synthesis and uses thereof” (priority 2017, dated 2022).

*: point of attachment. X1 = CC[N+]1=C(/C=C/C=C/C=C2N(CCCCCC(=O)NCCN3C(=O)CC(*)C3=O)c3ccc(S(=O)(=O)O)cc3C2(C)C)C(C)(C)c2cc(S(=O)(=O)[O-])ccc21

Data set [1] concerns the target trypsin (Sus scrofa, UniProt P00761). The settings on record: trypsin digestion, 37°C, pH8, followed up to 24 h. How it is done: Trypsin proteolysis. MUB40 (SEQ ID NO: 3)-Cy5 and RI-MUB40 (SEQ ID NO: 2)-Cy5 were dissolved in 50 mM ammonium bicarbonate, pH 8. Prior to digestion and owing to the propensity of maleimide derivatives to undergo ring-opening in a basic environment (Fontaine et al., 2015), we incubated both peptides at 37° C. overnight. Ring-opening completion was checked before trypsin addition. […] Lyophilized trypsin (Thermo scientific) was reconstituted using 50 mM acetic acid, diluted with 50 mM ammonium bicarbonate and added to the peptide solution so as to obtain a final peptide concentration of 0.25 mg/mL and a protease to protein ratio of 1:20 (w/w). Samples were directly incubated on the injection sampler thermostated at 37° c. HPLC and LC-MS analyses were performed as previously described above, applying a 15% to 40% linear gradient of acetonitrile in 10 mM ammonium acetate over 20 minutes.
Hydrolysis experiments were done in solution at 37° c., pH8 and monitored by HPLC by measuring the peak area of the remaining intact peptides.

In data set [2] the test system is Colonic goblet cell granules. The data set is described as follows: Fluorescent labelling of colonic goblet cell granules on fixed slides. The settings on record: 1 μg/mL. Type of data set: cell-based, human. How it is done:
Colon explant surgical collection. In summary, human colon segments (ascending, descending, and sigmoid colon) were obtained from fully informed patients undergoing surgery for colon carcinoma and were analyzed anonymously. Patient written consent was obtained, according to the French bioethics law. None of the patients had undergone radiotherapy or chemotherapy. According to the pathologist's examination rules for the longitudinally bisected colon, a healthy segment of tissue, which was distant from the tumor region and devoid of metastatic cells, was removed. Tissues were processed according to the French Government guidelines for research on human tissues and the French Bioethics Act with the authorization no RBM 2009-50.
Antibodies, fluorescent markers. For immunofluorescence assay, lactoferrin was detected with a mouse anti-lactoferrin primary monoclonal antibody (Hycult biotech, clone 265-1K1, 1:50 dilution) and an anti-mouse-FITC conjugated secondary antibody (1:1000). Nuclei were detected with DAPI (Life Technologies), Lyophilized MUB40 peptides (MUB40#1 (SEQ ID NO: 3)-Cy5, MUB40#2 (SEQ ID NO: 4)-Cy5, MUB40#3 (SEQ ID NO: 5)-Cy5, MUB40#4 (SEQ ID NO: 6)-Cy5, MUB40#1 (SEQ ID NO: 3)-Dylight, RI-MUB40 (SEQ ID NO: 2)-Cy5, and RI-MUB40 (SEQ ID NO: 2)-Biotin) were solubilized in a phosphate buffer pH8 at a 1 mg/mL concentration and used at a 1:1000 dilution. […]

The test system of data set [3] is Human hematopoietic stem cells (CD34+). Briefly: Labelling of hematopoietic stem cells and derived neutrophils. Format: cell-based. How it is done: Hematopoietic Stem cells (CD34+) purification, proliferation and differentiation. HSC were purified from cytapheresis products with a CD34 Microbead Kit Ultrapure, according to the manufacturer procedure (Miltenyi). Lin^−/CD34+ HSC purity yield was >98%. CD34+ HSC were cultured in StemSpan SFEM II supplemented with SCF (100 ng/ml), IL-3 (10 ng/ml), and IL-6 (100 ng/ml) at 37° C. with 5% CO2. Neutrophil differentiation was induced in StemSpan SFEM II containing G-CSF (10 ng/ml), SCF (100 ng/ml), and IL-3 (10 ng/ml) for 13 days at 37° C. with 5% CO2.

Sequence of trypsin (P00761 9-231): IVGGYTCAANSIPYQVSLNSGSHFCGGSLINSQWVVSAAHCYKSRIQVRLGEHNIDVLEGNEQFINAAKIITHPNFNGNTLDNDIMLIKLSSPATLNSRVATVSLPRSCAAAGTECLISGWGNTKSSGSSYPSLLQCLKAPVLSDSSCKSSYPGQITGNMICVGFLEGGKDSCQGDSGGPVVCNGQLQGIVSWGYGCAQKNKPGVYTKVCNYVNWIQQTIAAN

Take “Ac-C(X1)TAEGIKKFEGDGYELFKDNFPAGEKFDNDDTNDQFYTVIF-NH2 [Cy5-MUB40#1]”: in data set [1], the “degradation by trypsin (in words)” value is reported as “almost completely degraded within 3 h”. The “labelling of colonic goblet cell granules” value in data set [2] is listed as “labelled”. Also, in data set [3] (G-CSF, IL-3, IL-6, 2 weeks), the “labelling after differentiation in polymorphonuclear neutrophils” value is on record as “positive staining”. The “labelling of hematopoietic stem cells” value in data set [3] (during proliferation) is “not labelled”.
